The nature of data set [1]: Cytotoxicity (WST-1), Calu-3 cells. Particulars: human. (Formazan colour is commonly taken as a measure of viable cells.)
Data set [2] has as its system SARS-CoV-2. The experiment in a line: Antiviral efficacy by RNA copy numbers (qRT-PCR, RdRp gene), co-treatment, Vero cells.
Data set [3] deals with Vero cells. The experiment in a line: Cytotoxicity, tetrazolium salts-based assay (WST-1), Vero cells. Format: cell-based, African green monkeys (Chlorocebus sp.). Particulars: all conditions tested (3.13, 12.5, 50 μM).
Data set [4] relates to SARS-CoV-2. The experiment in a line: Post-infection treatment, viral plaque assay, Calu-3 cells. It is filed as cell-based, SARS-CoV-2 (a Korean isolate). The note with it: Severe acute respiratory syndrome coronavirus 2, Calu-3, 12.5 μM, 48 hours after drug treatment. As to the method: In Experimental Example 6, pyronaridine tetraphosphate or artesunate was treated each in Calu-3 cells at 0, 2, 4, 6, 8, 10, 12, 24 and 36 hours after SARS-CoV-2 (a Korean isolate) inoculation, and evaluated how long hours the inhibitory effect of each drug were retained against virus infections.
Calu-3 cells and viruses were prepared in the same manner as shown in Experimental Example 5.
After dissolving pyronaridine tetraphosphate and artesunate in DMSO each, it was diluted to 12.5 μM using media. At 1 hour after the inoculation with SARS-CoV-2 (MOI=0.1), the supernatant was removed, and Calu-3 cells were washed, followed by the addition of DMEM culture media containing 2% bovine serum. The culture media containing drugs were added at 0, 2, 4, 6, 8, 10, 12, 24 and 36 hours each. At 48 hours after each drug treatment, cell supernatants were harvested and a plaque assay—in which the plaques generated by infectious virus infection were counted in Vero cells, cells used for virus amplification—was performed. The DMEM-F12 medium layer containing 2% agarose was laid on the layer of infected Vero cells, and the number of plaques was counted by using counter-staining with crystal violet, after incubation for 72 hours.

Data set [5] concerns Ebola virus. Particulars: in vitro assays; cited from earlier work.
Data set [6] deals with SARS-CoV-2. The experiment in a line: Antiviral efficacy by RNA copy numbers (qRT-PCR), co-treatment, Calu-3 human lung cell line. Particulars: Calu-3 cells; for selectivity index, SI / IC50: 48 hours post-infection; for IC50: co-treatment. A general note: Real-time PCR tracks product formation cycle by cycle.
Data set [7] relates to Ebola virus. The note with it: guinea pig models infected with Ebola virus; cited from earlier work.
Data set [8] deals with SARS-CoV-2. The experiment in a line: Antiviral efficacy by immunofluorescence staining imaging, pretreatment, Vero cells. Particulars: 50 μM, pretreated 1 hour, 24 hours post-infection.
Data set [9] deals with Vero cells. The note with it: African green monkey (Chlorocebus sp.).
Data set [10] relates to Ebola virus. Particulars: cited from earlier work.
Data set [11] concerns SARS-CoV-2. The experiment in a line: In vivo antiviral efficacy in SARS-CoV-2-infected hamsters, lung virus titer by plaque assay. Also noted: species or system Syrian hamsters. The note with it: 360 mg/kg alone, oral, once at 25 hours post-infection, 4-day post-infection; vehicle control 8.30.
A further data set deals with Hela cells. Particulars: cited from earlier work.
Data set [12] deals with Ebola virus. Particulars: Vero cells; cited from earlier work.
Data set [13] concerns Vero cells. Particulars: cited from earlier work.
Data set [14] relates to Ebola virus. The note with it: Hela cells; cited from earlier work.
A further data set in a line: in vitro. Particulars: human.
The mark [15] stands for this setting: added at up to 6 hours post-infection.
The mark [16] stands for this setting: added at up to 12 hours post-infection.
Where [17] appears, read: added at up to 24 hours post-infection.
Where [18] appears, read: co-treatment, Vero cells, 24 hours after infection.

In general, inhibition refers to the relative decrease from the control value, in per cent. Broadly, the IC50 is the point on the concentration scale where inhibition reaches its midpoint. For orientation: EC50 means the concentration that produces a half-maximal response.

`C[C@H]1[C@H](OC(=O)CCC(=O)O)O[C@@H]2O[C@@]3(C)CC[C@H]4[C@H](C)CC[C@@H]1[C@@]24OO3` [artesunate] displayed a CC50 at 48 h in data set [1] of more than 100 µM. In addition, the inhibition rate in the data set on SARS-CoV-2 [2] (3.13 μM, 48 hours post-infection, Vero cells) turned out to be 39%; in the data set on SARS-CoV-2 [2] (12.5 μM, 24 hours post-infection, Vero cells), 40%; with SARS-CoV-2 [2] (12.5 μM, 48 hours post-infection, Vero cells), 51%. For the same compound, the “inhibition rate against virus” value in the data set with SARS-CoV-2 [2] (50 μM, Vero cells, co-treatment) is on record as 83%. For the same compound, the cytotoxicity entry in the data set with Vero cells [3] is “no significant cytotoxicity”. Also, the inhibition at 12.5 µM in the data set with SARS-CoV-2 [4] (setting [15]) is 92 to 96%; with SARS-CoV-2 [4] (setting [16]) it was more than 90%; in the data set on SARS-CoV-2 [4] (setting [17]), 48%. For the same compound, in the data set on Ebola virus [5], the “antiviral efficacy against Ebola virus” value is “showed an antiviral efficacy”. Also, the “selectivity index, SI” value in the data set with SARS-CoV-2 [6] is recorded as more than 220.8. Moreover, the IC50 in the data set on SARS-CoV-2 [6] is 0.45 µM.
As to `CCN(CC)CCCC(C)Nc1ccnc2cc(Cl)ccc12` (stereo not drawn) [chloroquine], the antiviral effect entry with Ebola virus [7] was “did not show antiviral effect”.
For the compound `CCN(CCO)CCCC(C)Nc1ccnc2cc(Cl)ccc12` (stereo not drawn) [hydroxychloroquine], the “antiviral efficacy in the monkey cell lines” value with SARS-CoV-2 [2] (monkey cell lines (Vero)) was “showed antiviral efficacy”. For the same compound, in the data set with SARS-CoV-2 [6] (at less than 50 μM), the “antiviral effect in the human lung cell lines” value was “no antiviral effect”.
As for `COc1ccc2nc3cc(Cl)ccc3c(Nc3cc(CN4CCCC4)c(O)c(CN4CCCC4)c3)c2n1` [pyronaridine], the virus inhibition rate in the data set with SARS-CoV-2 [8] is 70%. Moreover, in the data set with Vero cells [9], the “cytotoxicity increased by drug pretreatment” value stood at 17%. The “virus titer and survival rate” value in the data set with Ebola virus [10] (Ebola virus-challenged mouse models) is reported as “significantly improved”. Further, the “mortality and viral infection rate” value in the data set on Ebola virus [10] (mouse models challenged with Ebola virus) is “significantly inhibited”. For the same compound, the “median infectious virus titer in the lung tissues” value with SARS-CoV-2 [11] was determined as 7.22 Log10 PFU. Moreover, the “selectivity index, SI” value is given as more than 1.40 in the data set on SARS-CoV-2 [2] (Vero cells, co-treatment) and more than 11.66 in the data set on SARS-CoV-2 [6]. Also, the EC50 was 8.27 µM in the data set with SARS-CoV-2 [2] (setting [18]) and 0.42 to 1.12 µM with Ebola virus [14]. The “inhibition at non-cytotoxic concentrations” value in the data set on SARS-CoV-2 [2] (setting [18]) is “more than 90%”. Further, the CC50 in the data set on Hela cells is 3.1 µM; with Vero cells [13] it was 1.3 µM. The figures for the inhibition at 12.5 µM in the data set on SARS-CoV-2 [4] (setting [15]), in the data set on SARS-CoV-2 [4] (setting [16]) and in the data set on SARS-CoV-2 [4] (setting [17]) were more than 99%, more than 94% and 90%, respectively. The “antiviral activity against Ebola virus at a concentration below CC50” value in the data set on Ebola virus [12] is on record as “no antiviral activity”. In addition, the IC50 with SARS-CoV-2 [6] was determined as 8.58 µM. In addition, the CC50 at 48 h in the data set “in vitro” was more than 100 µM.

(Values after patent US12485116B2, “Pharmaceutical composition for preventing or treating epidemic RNA viral infectious disease” (priority 2020, dated 2025).)
